We go through 32 compounds from BindingDB's records for patent US11566007 (Revolution Medicines, 2023).

For experiment [1], the target named is GTPase KRas [G12C] (Homo sapiens, UniProt P01116, G12C). Description: Biochemical Assay. The source says:
(§1) The purpose of this biochemical assay is to measure the ability of test compounds to covalently label nucleotide-loaded K-Ras isoforms. […] Analysis of raw data may be carried out using Waters MassLynx MS software, with % bound calculated from the deconvoluted protein peaks for labeled and unlabeled K-Ras.

Experiment [2] concerns the target GTPase KRas [G13C] (Homo sapiens, UniProt P01116, G13C). Nature of the experiment: Biochemical Assay.
Description: as §1

Structures are written as SMILES.

Chain of GTPase KRas [G13C] (P01116 whole entry G13C): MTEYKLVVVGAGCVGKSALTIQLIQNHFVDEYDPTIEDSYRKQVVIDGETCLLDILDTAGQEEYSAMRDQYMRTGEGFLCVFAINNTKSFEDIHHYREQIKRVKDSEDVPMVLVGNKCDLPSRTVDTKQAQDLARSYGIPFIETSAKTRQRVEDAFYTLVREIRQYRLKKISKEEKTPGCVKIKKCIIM
Chain of GTPase KRas [G12C] (P01116 whole entry G12C, canonical isoform): as the sequence (P01116 whole entry G13C) above, with G12C, C13G counted along it

As for `C=CC(=O)N1CC[C@H](C(=O)N(C)[C@H](C(=O)N[C@H]2Cc3cc(O)cc(c3)-c3ccc4c(c3)c(c(-c3ccc(CN5CC[C@@H](O)C5)cc3)n4CC)CC(C)(C)COC(=O)[C@@H]3CCCN(N3)C2=O)C(C)C)C1` [US11566007, Example A1], in experiment [1], the half-maximal inhibitory concentration (IC50) (commonly the point on the concentration scale where inhibition reaches its midpoint) was “in the range around 550 nM”. In the case of `C=CC(=O)N1CC[C@H](C(=O)N(C)[C@H](C(=O)N[C@H]2Cc3cc(O)cc(c3)-c3ccc4c(c3)c(c(-c3ccccc3CCOC)n4CC)CC(C)(C)COC(=O)[C@@H]3CCCN(N3)C2=O)C2CCOCC2)C1` [US11566007, Example A6], in experiment [1], the IC50 result is “in the range around 550 nM”. On the same count and under the same terms, with `C=CC(=O)N1CC[C@H](C(=O)N(C)[C@H](C(=O)N[C@H]2Cc3cc(OC(=O)CCN4CCN(C)CC4)cc(c3)-c3ccc4c(c3)c(c(-c3ccccc3CCOC)n4CC)CC(C)(C)COC(=O)[C@@H]3CCCN(N3)C2=O)C(C)C)C1` [US11566007, Example A7] the entry was “in the range around 550 nM”. Same read-out and setting: next, `C=CC(=O)N1CC[C@H](C(=O)N(C)[C@H](C(=O)N[C@H]2Cc3cc(OC(=O)CN)cc(c3)-c3ccc4c(c3)c(c(-c3ccccc3CCOC)n4CC)CC(C)(C)COC(=O)[C@@H]3CCCN(N3)C2=O)C(C)C)C1` [US11566007, Example A8]: “in the range around 550 nM”. On the same count and under the same terms, with `C=CC(=O)N1CC[C@H](C(=O)N(C)[C@H](C(=O)N[C@H]2Cc3cc(O)cc(c3)-c3ccc4c(c3)c(c(-c3ccc(CN5CCCC5)cc3)n4CC)CC(C)(C)COC(=O)[C@@H]3CCCN(N3)C2=O)C(C)C)C1` [US11566007, Example A10] the entry was “in the range around 550 nM”. Consider `C=CC(=O)N1CCC(F)(C(=O)N(C)[C@H](C(=O)N[C@H]2Cc3cc(O)cc(c3)-c3ccc4c(c3)c(c(-c3ccccc3CCOC)n4CC)CC(C)(C)COC(=O)[C@@H]3CCCN(N3)C2=O)C(C)C)CC1` [US11566007, Example A11], for which the IC50 result in experiment [1] was “in the range around 550 nM”. For `C=CC(=O)N1CCCN(C(=O)N(C)[C@H](C(=O)N[C@H]2Cc3cc(O)cc(c3)-c3ccc4c(c3)c(c(-c3ccccc3CCOC)n4CC)CC(C)(C)COC(=O)[C@@H]3CCCN(N3)C2=O)C(C)C)CC1` [US11566007, Example A13], the IC50 entry in experiment [2] is “in the range around 550 nM”. Regarding `C=CC(=O)N1CCC(C(=O)N(C)[C@H](C(=O)N[C@H]2Cc3cc(O)cc(c3)-c3ccc4c(c3)c(c(-c3ccccc3CCOC)n4CC)CC(C)(C)COC(=O)[C@@H]3CCCN(N3)C2=O)C(C)C)CC1` [US11566007, Example A14], the IC50 result in experiment [1] is “in the range around 550 nM”. Regarding `C=CC(=O)N1CC[C@H](C(=O)N(C)[C@H](C(=O)N[C@H]2Cc3cc(O)cc(c3)-c3ccc4c(c3)c(c(-c3ccccc3OC)n4CC)CC(C)(C)COC(=O)[C@@H]3CCCN(N3)C2=O)C(C)C)C1` [US11566007, Example A17], in experiment [1], the concentration for half-maximal inhibition (IC50) result is “in the range around 550 nM”.

In the case of `C=CC(=O)N1CCN(C(=O)N(C)[C@H](C(=O)N[C@H]2Cc3cc(O)cc(c3)-c3ccc4c(c3)c(c(-c3ccccc3CCOC)n4CC)CC(C)(C)COC(=O)[C@@H]3CCCN(N3)C2=O)C(C)C)CC1` [US11566007, Example A18], the IC50 entry in experiment [2] was “in the range around 550 nM”.

Regarding `C=CC(=O)N1CCC(F)(C(=O)N(C)[C@H](C(=O)N[C@H]2Cc3cc(O)cc(c3)-c3ccc4c(c3)c(c(-c3ccccc3CN(C)C)n4CC)CC(C)(C)COC(=O)[C@@H]3CCCN(N3)C2=O)C(C)C)CC1` [US11566007, Example A20], in experiment [1], the IC50 entry is “in the range around 55 nM”. The same measure, in the same setting: next, `C=CC(=O)N1CC[C@H](C(=O)N(C)[C@H](C(=O)N[C@H]2Cc3cc(O)cc(c3)-c3ccc4c(c3)c(c(-c3ccccc3[C@@H](C)OC)n4CC)CC(C)(C)COC(=O)[C@@H]3CCCN(N3)C2=O)C(C)C)C1` [US11566007, Example A29]: “in the range around 55 nM”; `C=CC(=O)N1CC[C@H](C(=O)N(C)[C@H](C(=O)N[C@H]2Cc3cc(O)cc(c3)-c3ccc4c(c3)c(c(-c3cccc(CN(C)C)c3)n4CC)CC(C)(C)COC(=O)[C@@H]3CCCN(N3)C2=O)C(C)C)C1` [US11566007, Example A30]: “in the range around 550 nM”; `C=CC(=O)N1CC2(CCN([C@H](C(=O)N[C@H]3Cc4cc(O)cc(c4)-c4ccc5c(c4)c(c(-c4ccccc4CCOC)n5CC)CC(C)(C)COC(=O)[C@@H]4CCCN(N4)C3=O)C(C)C)C2=O)C1` [US11566007, Example A31]: “in the range around 55 nM”. With `C=CC(=O)N1CC[C@H](C(=O)N(C)[C@H](C(=O)N[C@H]2Cc3cc(O)cc(c3)-c3ccc4c(c3)c(c(-c3ccc(C5CCN(C)CC5)cc3)n4CC)CC(C)(C)COC(=O)[C@@H]3CCCN(N3)C2=O)C(C)C)C1` [US11566007, Example A39], the half-maximal inhibitory concentration (IC50) result in experiment [1] was “in the range around 550 nM”. For the compound `C=CC(=O)N1C[C@H](C)[C@H](C(=O)N(C)[C@H](C(=O)N[C@H]2Cc3cc(O)cc(c3)-c3ccc4c(c3)c(c(-c3ccccc3CCOC)n4CC)CC(C)(C)COC(=O)[C@@H]3CCCN(N3)C2=O)C(C)C)C1` [US11566007, Example A41], the IC50 result in experiment [2] was “in the range around 5500 nM”. Turning to `C=CC(=O)N1CC[C@H](C(=O)N(C)[C@H](C(=O)N[C@H]2Cc3cc(N)cc(c3)-c3ccc4c(c3)c(c(-c3ccccc3COC)n4CC)CC(C)(C)COC(=O)[C@@H]3CCCN(N3)C2=O)C(C)C)C1` [US11566007, Example A42], the half-maximal inhibitory concentration (IC50) result in experiment [1] was “in the range around 550 nM”. The same measure, in the same setting: with `C=CC(=O)N1C[C@H](C)[C@H](C(=O)N(C)[C@H](C(=O)N[C@H]2Cc3cc(O)cc(c3)-c3ccc4c(c3)c(c(-c3ccccc3CN(C)C)n4CC)CC(C)(C)COC(=O)[C@@H]3CCCN(N3)C2=O)C2CCCC2)C1` [US11566007, Example A43] the entry was “in the range around 55 nM”. Same read-out and setting: next, `C=CC(=O)N1CC[C@H](C(=O)N(C)[C@H](C(=O)N[C@H]2Cc3cc(O)cc(c3)-c3ccc4c(c3)c(c(-c3cccnc3COCC)n4CC)CC(C)(C)COC(=O)[C@@H]3CCCN(N3)C2=O)C(C)C)C1` [US11566007, Example A44]: “in the range around 55 nM”. For the compound `CCn1c(-c2ccccc2CN(C)C)c2c3cc(ccc31)-c1cc(O)cc(c1)C[C@H](NC(=O)[C@H](C(C)C)N(C)C(=O)c1ccc(NC(=O)/C=C/CN(C)C)cn1)C(=O)N1CCC[C@H](N1)C(=O)OCC(C)(C)C2` [US11566007, Example A46], the 50% inhibitory concentration (IC50) entry in experiment [2] was “in the range around 55 nM”; in experiment [1] it was “in the range around 550 nM”.

On to `CCn1c(-c2ccccc2CN(C)C)c2c3cc(ccc31)-c1cc(O)cc(c1)C[C@H](NC(=O)[C@H](C(C)C)N(C)C(=O)c1ccc(NC(=O)/C=C/CN(C)C)cc1)C(=O)N1CCC[C@H](N1)C(=O)OCC(C)(C)C2` [US11566007, Example A49], for which the half-inhibitory concentration (IC50) entry in experiment [2] is “in the range around 550 nM”. Turning to `C=CC(=O)N1C[C@H](C)[C@H](C(=O)N(C)[C@H](C(=O)N[C@H]2Cc3cc(O)cc(c3)-c3ccc4c(c3)c(c(-c3ccccc3CN(C)C)n4CC)CC(C)(C)COC(=O)[C@@H]3CCCN(N3)C2=O)C(C)C)C1` [US11566007, Example A52], in experiment [1], the IC50 entry is “in the range around 55 nM”. Same read-out and setting: with `C=CC(=O)N1CC[C@H](C(=O)N(C)[C@H](C(=O)N[C@H]2Cc3cc(O)cc(c3)-c3ccc4c(c3)c(c(-c3cccnc3COC)n4CC)CC(C)(C)COC(=O)[C@@H]3CCCN(N3)C2=O)C2CCCC2)C1` [US11566007, Example A55] the entry was “in the range around 55 nM”; with `C=CC(=O)N1C[C@H](C)[C@H](C(=O)N(C)[C@H](C(=O)N[C@H]2Cc3cc(O)cc(c3)-c3ccc4c(c3)c(c(-c3cccnc3COC)n4CC)CC(C)(C)COC(=O)[C@@H]3CCCN(N3)C2=O)C(C)C)C1` [US11566007, Example A56], “in the range around 55 nM”. The same measure, in the same setting: next, `C=CC(=O)N1C[C@H](C)[C@H](C(=O)N(C)[C@H](C(=O)N[C@H]2Cc3cc(O)cc(c3)-c3ccc4c(c3)c(c(-c3cccnc3COC)n4CC)CC(C)(C)COC(=O)[C@@H]3CCCN(N3)C2=O)C2CCCC2)C1` [US11566007, Example A57]: “in the range around 55 nM”.

Turning to `C=CC(=O)N1CC[C@H](C(=O)N(C)[C@H](C(=O)N[C@H]2Cc3cc(O)cc(c3)-c3ccc4c(c3)c(c(-c3cncc(C#N)c3)n4CC)CC(C)(C)COC(=O)[C@@H]3CCCN(N3)C2=O)C(C)C)C1` [US11566007, Example A62], the IC50 entry in experiment [1] was “in the range around 550 nM”.

As for `C=CC(=O)N1CC[C@@]2(CCCN([C@H](C(=O)N[C@H]3Cc4cc(O)cc(c4)-c4ccc5c(c4)c(c(-c4ccccc4CCOC)n5CC)CC(C)(C)COC(=O)[C@@H]4CCCN(N4)C3=O)C(C)C)C2=O)C1` [US11566007, Example A63], in experiment [1], the IC50 entry is “in the range around 550 nM”.

In the case of `C=CC(=O)N1CC[C@H](C(=O)N(C)[C@H](C(=O)N[C@H]2Cc3cc(O)cc(c3)-c3ccc4c(c3)c(c(-c3cccnc3COC)n4C)CC(C)(C)COC(=O)[C@@H]3CCCN(N3)C2=O)C(C)C)C1` [US11566007, Example A66], the 50% inhibitory concentration (IC50) entry in experiment [1] is “in the range around 550 nM”. The same measure, in the same setting: with `C=CC(=O)N1CC[C@@]2(CCN([C@H](C(=O)N[C@H]3Cc4cc(O)cc(c4)-c4ccc5c(c4)c(c(-c4ccccc4CCOC)n5CC)CC(C)(C)COC(=O)[C@@H]4CCCN(N4)C3=O)C(C)C)C2=O)C1` [US11566007, Example A68] the entry was “in the range around 550 nM”; with `C=CC(=O)N1CC[C@H](C(=O)N(C)[C@H](C(=O)N[C@H]2Cc3cc(O)cc(c3)-c3ccc4c(c3)c(c(-c3cncc(CN(C)C)c3)n4CC)CC(C)(C)COC(=O)[C@@H]3CCCN(N3)C2=O)C(C)C)C1` [US11566007, Example A73], “in the range around 550 nM”.

As to `CCn1c(-c2cnccc2COC)c2c3cc(ccc31)-c1cc(O)cc(c1)C[C@H](NC(=O)[C@H](C(C)C)N(C)C(=O)[C@H]1CCN(C(=O)/C=C/CN(C)C)C1)C(=O)N1CCC[C@H](N1)C(=O)OCC(C)(C)C2` [US11566007, Example A87], the IC50 result in experiment [2] was “in the range around 550 nM”.

Regarding `CCn1c(-c2cccnc2COC)c2c3cc(ccc31)-c1cc(O)cc(c1)C[C@H](NC(=O)[C@H](C(C)C)N(C)C(=O)C1CN(C(=O)C#CCN(C)C)C1)C(=O)N1CCC[C@H](N1)C(=O)OCC(C)(C)C2` [US11566007, Example A97], the IC50 in experiment [2] was below 10 nM.
